Laboratory results taken from patent publication US20260356804A1, “SODIUM CHANNEL BLOCKING COMPOUNDS, DERIVATIVES THEREOF, AND METHODS OF THEIR USE” (LATIGO BIOTHERAPEUTICS, INC., priority 2022, published 2026).
Like-named read-outs stand apart in the source and are kept apart here.

Key:
human Nav1.8/b3 = target: T1, human Nav1.8/b3 (Homo sapiens, UniProt Q9Y5Y9); assay: Compound Profiling Human NaV1.8/β3 Cell Line—SyncroPatch384PE Assay (automated patch clamp, stably transfected CHO cells); assay type: cell-based; conditions: Nav1.8/b3 CHO cells, third set of compounds
T1 construct: expressed in transfected cells; host or cells: CHO

human Nav1.8/β1 = target: T2, human Nav1.8/β1 (Homo sapiens, UniProt Q9Y5Y9); assay: Compound Profiling Human NaV1.8/β1 Cell Line—Sophion QPatch II Assay (automated patch clamp, stably transfected HEK293 cells); assay type: cell-based
T2 construct: host or cells: HEK293
Method: Compounds were tested on recombinant human Nav1.8/β1 stably transfected HEK293 (Eurofins, CYL3025, St. Charles, MO) cells using the QPatch II system (Sophion Bioscience A/S, Ballerup—Denmark), an automated patch clamp device. Cells were cultured at 37° C./5% CO2 in DMEM/F-12 supplemented with 10% fetal bovine serum, 1× Non-Essential Amino Acids, and selection antibiotics (0.625 μg/mL Puromycin, 400 μg/mL Geneticin, and 100 μg/mL Hygromycin). One or two days prior to recording, cells were moved to a lower temperature 30° C./5% CO2 incubator to increase surface expression of the channels. On the day of the recordings, cells in culture dishes were washed twice with Ca^2+—Mg^2+ free DPBS and treated with Detachin (Genlantis, San Diego) for 3 minutes and then resuspended in Serum Free Medium (EX-CELL® ACF CHO Medium for Cell Culture (Sigma-Aldrich) supplemented with 0.04 mg/mL soybean trypsin Inhibitor and 25 mM HEPES (all components supplied by Sigma-Aldrich, St. Louis, MO) and allowed to recover for a minimum of 20 minutes in the onboard QStirrer. All experiments were performed at ambient temperature. Intracellular solution contained (mM): CsCl, 50; CsF, 90; MgCl2, 2; EGTA, 5; HEPES, 10; pH adjusted to 7.2 with CsOH. Extracellular solution contained (mM): NaCl, 137; KCl, 4; CaCl2), 3.8; MgCl2, 1; HEPES, 10; Glucose, 10; pH adjusted to 7.4 with NaOH. [LEFT OUT].
Compounds were tested in an interleaved manner across two cohorts of wells to develop an aggregate 8-point concentration response curve. Final concentrations include 0.1% DMSO and 0.03% pluronic Acid. In general, the concentration range spans a range from 0.01-300 nM. Compounds were diluted 1:10 with extracellular solution within their respective cohort. DMSO (0.1% by volume) served as a vehicle control to ascertain assay performance.
(§1) Whole cell patch clamp recordings were conducted according to Sophion standard procedure for QPatch II®. Cells were held at a holding potential of −120 mV. A depolarizing step to 10 mV for 30 ms was applied to elicit inward Na^+ currents. Inter-sweep interval was 15 sec. Following establishment of the whole-cell configuration in extracellular solution, cells were washed twice in extracellular solution containing 0.1% DMSO and 0.03% pluronic acid to stabilize the baseline current. Compounds were then applied by the QPatch II system into each well in an ascending manner within cohort and the current was recorded for five minutes for each concentration. Percent of current remaining was determined by taking the average of the last 5 sweeps within each concentration and normalizing to the latest pre-compound saline period. The potency (IC50) values of the compounds were only assessed against resting state block. Wells whose initial sodium current magnitude were below 2 nA or whole cell resistance fell below 100 MΩ were excluded from analysis.
as §1, with “MO” for “MΩ”, “analysis. […]” for “analysis.”

[1] = P1 (IC50, resting state block), P1 measurement, resting state block, holding potential −120 mV
[2] = P2 (IC50, inactivated state block), P2 measurement, inactivated state block, inactivation step −35 mV 10 sec
[3] = P1, resting state block, Nav1.8/β1 HEK293 cells, holding potential −120 mV, first set of compounds, read-out: P1 (IC50, resting state block)

T2 sequence (Q9Y5Y9 whole entry): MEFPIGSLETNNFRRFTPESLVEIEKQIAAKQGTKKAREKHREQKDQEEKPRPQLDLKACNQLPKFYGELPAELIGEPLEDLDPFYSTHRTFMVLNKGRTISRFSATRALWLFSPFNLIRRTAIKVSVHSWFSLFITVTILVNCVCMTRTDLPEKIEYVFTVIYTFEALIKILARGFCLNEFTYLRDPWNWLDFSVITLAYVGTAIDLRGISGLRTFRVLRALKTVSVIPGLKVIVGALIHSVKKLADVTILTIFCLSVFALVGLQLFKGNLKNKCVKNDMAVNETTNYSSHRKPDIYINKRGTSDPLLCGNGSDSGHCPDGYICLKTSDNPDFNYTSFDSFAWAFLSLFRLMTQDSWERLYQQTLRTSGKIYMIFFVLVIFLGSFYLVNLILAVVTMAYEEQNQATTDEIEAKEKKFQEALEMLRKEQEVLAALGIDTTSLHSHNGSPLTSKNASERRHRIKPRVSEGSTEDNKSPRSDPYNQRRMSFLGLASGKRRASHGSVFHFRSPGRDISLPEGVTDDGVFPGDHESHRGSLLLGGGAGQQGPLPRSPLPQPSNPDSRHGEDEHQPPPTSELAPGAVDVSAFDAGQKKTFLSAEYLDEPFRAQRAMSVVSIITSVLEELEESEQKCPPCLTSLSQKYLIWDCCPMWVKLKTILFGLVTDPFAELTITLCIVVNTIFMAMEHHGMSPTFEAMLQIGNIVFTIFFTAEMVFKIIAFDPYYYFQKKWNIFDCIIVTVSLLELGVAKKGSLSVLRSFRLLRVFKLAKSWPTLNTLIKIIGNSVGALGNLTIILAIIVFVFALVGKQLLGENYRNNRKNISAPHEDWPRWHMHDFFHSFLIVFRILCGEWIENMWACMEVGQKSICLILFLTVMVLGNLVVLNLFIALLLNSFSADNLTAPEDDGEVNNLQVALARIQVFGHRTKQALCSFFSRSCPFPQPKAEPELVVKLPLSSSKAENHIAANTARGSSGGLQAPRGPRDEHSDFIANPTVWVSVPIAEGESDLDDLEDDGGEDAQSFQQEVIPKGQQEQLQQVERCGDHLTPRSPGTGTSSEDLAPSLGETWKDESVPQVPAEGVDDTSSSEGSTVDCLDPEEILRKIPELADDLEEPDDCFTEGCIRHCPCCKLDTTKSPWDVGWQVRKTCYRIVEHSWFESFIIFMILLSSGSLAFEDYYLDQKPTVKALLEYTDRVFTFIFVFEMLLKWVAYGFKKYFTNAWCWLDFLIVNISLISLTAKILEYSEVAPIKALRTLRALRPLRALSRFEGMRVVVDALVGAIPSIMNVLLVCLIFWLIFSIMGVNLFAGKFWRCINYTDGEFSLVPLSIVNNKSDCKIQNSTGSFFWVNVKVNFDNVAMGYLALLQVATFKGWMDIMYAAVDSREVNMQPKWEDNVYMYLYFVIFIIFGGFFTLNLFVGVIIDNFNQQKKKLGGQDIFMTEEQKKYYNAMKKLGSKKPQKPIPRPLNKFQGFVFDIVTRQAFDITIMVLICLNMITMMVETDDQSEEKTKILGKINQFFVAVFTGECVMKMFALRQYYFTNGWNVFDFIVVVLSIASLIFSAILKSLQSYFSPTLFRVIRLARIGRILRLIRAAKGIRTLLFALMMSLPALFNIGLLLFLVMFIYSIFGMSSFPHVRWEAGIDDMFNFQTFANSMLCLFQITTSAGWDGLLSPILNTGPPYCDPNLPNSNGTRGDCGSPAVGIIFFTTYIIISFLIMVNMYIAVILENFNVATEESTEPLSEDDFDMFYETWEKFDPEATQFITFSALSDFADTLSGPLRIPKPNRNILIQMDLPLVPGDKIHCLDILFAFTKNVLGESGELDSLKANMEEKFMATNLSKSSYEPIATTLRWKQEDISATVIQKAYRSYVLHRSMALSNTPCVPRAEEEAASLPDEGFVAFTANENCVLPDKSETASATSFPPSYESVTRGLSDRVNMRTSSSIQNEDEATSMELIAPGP
T2 sequence (Q07699 19-218 partner): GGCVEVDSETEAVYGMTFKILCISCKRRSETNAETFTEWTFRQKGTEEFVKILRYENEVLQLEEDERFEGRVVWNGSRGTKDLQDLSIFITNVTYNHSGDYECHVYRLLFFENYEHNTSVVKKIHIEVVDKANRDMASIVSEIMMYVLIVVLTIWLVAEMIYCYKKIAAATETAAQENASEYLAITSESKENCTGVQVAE
T1 sequence (Q9Y5Y9 whole entry): as the sequence (Q9Y5Y9 whole entry) above
T1 sequence (Q9NY72 23-215 partner): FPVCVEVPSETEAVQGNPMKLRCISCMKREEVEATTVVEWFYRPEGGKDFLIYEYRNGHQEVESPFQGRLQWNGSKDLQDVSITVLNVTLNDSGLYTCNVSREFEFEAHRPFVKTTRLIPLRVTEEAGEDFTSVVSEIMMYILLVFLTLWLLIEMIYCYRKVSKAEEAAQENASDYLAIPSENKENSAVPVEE

IC50 (human Nav1.8/β1) [nM] | SMILES | also measured
5 to 50 | Cc1nc(F)ccc1Oc1ncc(C(F)(F)F)c(C)c1C(=O)Nc1ccc(F)c(S(C)(=O)=NCCN)c1 (stereo not drawn) [Example 88C] | IC50 (human Nav1.8/b3; [1]): < 5 nM; IC50 (human Nav1.8/b3; [2]): < 5 nM
5 to 50 | Cc1nc(F)ccc1Oc1ncc(C(F)(F)F)c(C)c1C(=O)Nc1cccc([S@@](=N)(=O)CCCN(C)C)c1 [Example 72C] | –
– | Cc1cc(F)ncc1Oc1cc(C(F)(F)F)c(Cl)cc1C(=O)Nc1ccc(F)c([S@@](C)(=N)=O)c1 [Example 23A] | IC50 (human Nav1.8/β1; [3]): > 200 nM
5 to 50 | Cc1nc(F)ccc1Oc1ncc(C2CCCC2)c(C)c1C(=O)Nc1ccnc([S@](C)(=N)=O)c1 [Example 86C] | IC50 (human Nav1.8/b3; [1]): 5 to 50 nM; IC50 (human Nav1.8/b3; [2]): 5 to 50 nM
> 200 | Cc1nc(F)ccc1Oc1nc(C(F)(F)F)c(Cl)cc1C(=O)Nc1ccnc([S@](C)(=N)=O)c1 [Example 81C] | –
> 200 | COc1cc(C#N)ccc1Oc1cc(C(F)(F)F)c(Cl)cc1C(=O)Nc1cccc([S@](C)(=N)=O)c1 [Example 27A] | –
5 to 50 | Cc1nc(F)ccc1Oc1ccc(C(F)(F)F)c(Cl)c1C(=O)Nc1ccnc([S@](C)(=N)=O)c1 [Example 32A] | –
100 to 200 | Cc1nc(F)ccc1Oc1cc(C(F)(F)F)ccc1C(=O)Nc1cccc([S@@](C)(=N)=O)c1 [Example 31A] | –
100 to 200 | Cc1nc(F)ccc1Oc1ncc(C(F)(F)F)c(C)c1C(=O)Nc1cccc([S@@](=N)(=O)CCCO)c1 [Example 68C] | –
> 200 | Cc1c(C(F)(F)F)cnc(Oc2ccc(F)nc2CO)c1C(=O)Nc1cccc([S@@](C)(=N)=O)c1 [Example 83C] | –
5 to 50 | Cc1nc(F)ccc1Oc1ncc(C(F)(F)F)c(C)c1C(=O)Nc1cccc([S@](=N)(=O)CCCN(C)C)c1 [Example 73C] | –
> 200 | Cc1nc(F)ccc1Oc1cc(C(F)(F)F)ccc1C(=O)Nc1ccnc([S@](C)(=N)=O)c1 [Example 28A] | –
5 to 50 | Cc1nc(F)ccc1Oc1ncc(C2CCCC2)c(C)c1C(=O)Nc1cccc([S@](C)(=N)=O)c1 [Example 87C] | IC50 (human Nav1.8/b3; [1]): 5 to 50 nM; IC50 (human Nav1.8/b3; [2]): 5 to 50 nM
> 200 | COc1cc(C#N)ccc1Oc1cc(C(F)(F)F)c(Cl)cc1C(=O)Nc1cccc([S@@](C)(=N)=O)c1 [Example 25A] | –
50 to 100 | CC[S@@](=N)(=O)c1cccc(NC(=O)c2c(Oc3ccc(F)nc3C)ncc(C(F)(F)F)c2C)c1 [Example 82C] | –
5 to 50 | CNC(C)(C)CCS(=N)(=O)c1cccc(NC(=O)c2c(Oc3ccc(F)nc3C)ncc(C(F)(F)F)c2C)c1 (stereo not drawn) [Example 50C] | –
> 200 | Cc1nc(F)ccc1Oc1ncc(C(F)(F)F)c(C)c1C(=O)N[C@H]1C[C@H](C(N)=O)C1 [Example 84C] | –
100 to 200 | Cc1nc(F)ccc1Oc1ncc(C(F)(F)F)c(C)c1C(=O)Nc1cccc(S(=O)(=O)CCCO)c1 [Example 70C] | –
5 to 50 | COc1cc(C#N)ccc1Oc1cc(C(F)(F)F)c(Cl)cc1C(=O)Nc1ccc(F)c([S@](C)(=N)=O)c1 [Example 8A, (R)-5-chloro-2-(4-cyano-2-methoxyphenoxy)-N-(4-fluoro-3-(S-methylsulfonimidoyl)phenyl)-4-(trifluoromethyl)benzamide] | –
– | Cc1cc(F)ncc1Oc1cc(C(F)(F)F)c(Cl)cc1C(=O)Nc1ccnc([S@@](C)(=N)=O)c1 [Example 19A] | IC50 (human Nav1.8/β1; [3]): > 200 nM
5 to 50 | Cc1nc(F)ccc1Oc1ncc(C(F)(F)F)c(C)c1C(=O)Nc1cccc(S(=N)(=O)CCC(C)(C)N)c1 (stereo not drawn) [Example 52C] | –
